In US10947254B2, “Methods for treating ulcerative colitis using 3-((1R,3s,5S)-3-((7-((5-methyl-1H-pyrazol-3-yl)amino)-1,6-naphthyridin-5-yl)amino)-8-azabicyclo[3.2.1]octan-8-yl)propanenitrile” (priority 2015, dated 2021):

Key:
[1] = Pharmacokinetics in plasma and the GI tract in rats; type: in vivo, Sprague Dawley rats; conditions: oral dosing in preclinical species
Procedure: Assay 6: Pharmacokinetics in Plasma and the GI Tract in Rats and Dogs A test compound was dosed to male Sprague Dawley rats (n=3) as described in Assay 5. […] At all time points, the plasma concentration was below the limit of quantitation of 0.001 μg/mL.

[2] = system: oxazolone-induced colitis; assay: Mouse model of oxazolone-induced colitis; type: in vivo, BALB/C mice; conditions: mice
Procedure: Assay 7: Mouse Model of Oxazalone-Induced Colitis
Oxazolone-induced colitis is an experimental model that has a histological resemblance to human ulcerative colitis (Heller et al. Immunology, 2002, 17, 629-638). Adult BALB/C mice from Harlan were used in the assay. On day 1, animals were lightly anesthetized with isoflurane and the hairs between the shoulder were carefully removed before oxazolone (4%, 150 μL, 4:1 acetone:olive oil formulation) or vehicle solution was slowly applied for skin sensitization. Seven days after skin sensitization, the mice were fasted overnight, anesthetized with isoflurane inhalation, and a 1 mL syringe equipped with a 3.5-F catheter, filled with oxazolone solution, was inserted carefully about 4 cm into the colon of the mouse. Following insertion, 50 μL of the oxazolone solution (1%, 1:1 ethanol:water formulation) was injected very slowly (over 30 sec using an injection pump) into the colon. The catheter was removed and the mice were held vertically (head down) for 2 min to ensure that the entire oxazolone solution remained inside the colon. Drug treatment (PO, BID or TID) or vehicle was initiated a day prior to the oxazolone intrarectal (IR) challenge. Two-day post oxazolone intrarectal challenge, the Disease Activity Index (DAI) was assessed by treatment-blinded experimenters for each mouse according to the criteria score: stool consistency score (0, normal; 2, loose; 4, diarrhea), gross bleeding score (0, absence; 2, blood tinged; 4, presence), and weight loss score (0, none; 1, 1%-5%; 2, 5%-10%; 3, 10%-20%; 4, more than 20%); DAI=average of (stool consistency score+gross bleeding score+weight loss score).
Selected compounds of the invention were tested in the assay. Efficacy in the model is evidenced by a decrease in DAI score as compared with the score from vehicle treated animals.

[3] = system: splenic NK, B and T cells; assay: Immunosuppression effects in mouse splenic natural killer (NK) cells; type: in vivo, Balb/C mice; conditions: mice, three days
Procedure: Adult male Balb/C mice (12-14 weeks of age) from Harlan were used for the study. […] Spleens were harvested 1 or 2 h post last dose and crushed immediately for cell subtype staining. Prior to fixation, fluorophore-labelled antibodies for CD19 (FITC; B cells), CD3e (PE; pan T cells) and DX5 (APC; NK cells) were incubated with splenocyte samples from each animal to allow for simultaneous, multiple subtype % analysis on the flow cytometer. The number of total spleen cells for each animal was measured by Scepter™ 2.0 Handheld Automated Cell Counter. The absolute number of lymphocyte subtype population (e.g., splenic B, T and NK cells) was calculated from the percentage of each subtype times total spleen cells for each animal. A one way ANOVA, with Dunnett's post hoc test, was used to compare the splenic lymphocytes number of the vehicle and test compound groups. The a level was set at p<0.05. Data were presented as the mean±SEM for each group.

[4] = First in human study of safety, tolerability and pharmacokinetics in healthy subjects; type: in vivo; conditions: by comparison to other orally administered compounds
Procedure: Assay 9: First in Human Study to Evaluate the Safety, Tolerability and Pharmacokinetics in Healthy Subjects
The compound of Example 1 was evaluated in a double-blinded, randomized, placebo-controlled, single ascending dose (SAD) and multiple ascending dose (MAD) study of safety, tolerability, and pharmacokinetics in healthy subjects. Pharmacokinetic samples were collected up to 72 hours post the final dose in both the SAD study (after the first dose) and MAD study (after 14 days of once-daily dosing). The SAD study enrolled 5 cohorts and the MAD study enrolled 4 cohorts totaling 72 subjects, of which 71 completed the dosing period.
Plasma pharmacokinetic (PK) parameters were determined by non-compartmental analysis using WinNonLin Version 6.4.0 (Pharsight, St Louis, Mo.). The plasma PK parameter presented here is:
Cmax: Maximum Concentration in Plasma

[5] = system: IL-4 induced STAT6 phosphorylation in THP-1 human monocytic cells; conditions: THP-1 cells
[6] = target: TYK2 (Homo sapiens (Human), UniProt P29597); type: biochemical
Chain of TYK2 (P29597 whole entry): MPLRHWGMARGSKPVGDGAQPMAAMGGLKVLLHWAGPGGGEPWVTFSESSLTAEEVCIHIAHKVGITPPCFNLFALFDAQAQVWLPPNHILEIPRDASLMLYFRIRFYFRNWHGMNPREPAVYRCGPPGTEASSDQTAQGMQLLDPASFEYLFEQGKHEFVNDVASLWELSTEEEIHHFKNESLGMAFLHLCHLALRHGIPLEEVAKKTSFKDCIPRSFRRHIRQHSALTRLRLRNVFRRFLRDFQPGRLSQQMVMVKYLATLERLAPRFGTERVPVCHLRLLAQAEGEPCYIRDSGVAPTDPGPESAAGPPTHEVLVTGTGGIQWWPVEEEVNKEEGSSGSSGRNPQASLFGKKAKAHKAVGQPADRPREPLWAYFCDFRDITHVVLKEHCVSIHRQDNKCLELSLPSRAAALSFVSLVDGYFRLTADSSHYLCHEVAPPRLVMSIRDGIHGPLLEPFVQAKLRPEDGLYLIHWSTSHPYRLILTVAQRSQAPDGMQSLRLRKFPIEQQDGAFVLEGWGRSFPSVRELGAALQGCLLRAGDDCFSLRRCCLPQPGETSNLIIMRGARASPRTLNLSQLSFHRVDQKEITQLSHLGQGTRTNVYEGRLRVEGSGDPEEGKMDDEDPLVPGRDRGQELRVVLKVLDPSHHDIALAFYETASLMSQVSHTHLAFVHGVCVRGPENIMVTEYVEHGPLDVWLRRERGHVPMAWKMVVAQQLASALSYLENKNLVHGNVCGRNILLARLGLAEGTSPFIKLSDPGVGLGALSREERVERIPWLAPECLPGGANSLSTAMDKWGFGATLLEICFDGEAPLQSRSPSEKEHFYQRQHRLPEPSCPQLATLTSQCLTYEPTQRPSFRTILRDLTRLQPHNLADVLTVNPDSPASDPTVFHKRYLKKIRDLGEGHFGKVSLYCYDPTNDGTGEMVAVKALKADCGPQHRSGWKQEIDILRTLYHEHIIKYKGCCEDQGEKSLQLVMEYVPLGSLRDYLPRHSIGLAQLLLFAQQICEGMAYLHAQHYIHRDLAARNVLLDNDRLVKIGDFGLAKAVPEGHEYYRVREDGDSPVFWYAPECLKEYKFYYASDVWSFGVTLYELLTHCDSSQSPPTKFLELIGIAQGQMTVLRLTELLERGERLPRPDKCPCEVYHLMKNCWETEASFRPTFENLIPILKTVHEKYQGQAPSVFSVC
Procedure: (§1) Assay 1: Biochemical JAK and Off-Target Kinase Assays
(§2) A panel of four LanthaScreen JAK biochemical assays (JAK1, 2, 3 and Tyk2) were carried in a common kinase reaction buffer (50 mM HEPES, pH 7.5, 0.01% Brij-35, 10 mM MgCl2, and 1 mM EGTA). Recombinant GST-tagged JAK enzymes and a GFP-tagged STAT1 peptide substrate were obtained from Life Technologies.
(§3) Serially diluted compounds were pre-incubated with each of the four JAK enzymes and the substrate in white 384-well microplates (Corning) at ambient temperature for 1 h. ATP was subsequently added to initiate the kinase reactions in 10 μL total volume, with 1% DMSO. […] Kinase reactions were allowed to proceed for 1 hour at ambient temperature before a 10 μL preparation of EDTA (10 mM final concentration) and Tb-anti-pSTAT1 (pTyr701) antibody (Life Technologies, 2 nM final concentration) in TR-FRET dilution buffer (Life Technologies) was added. The plates were allowed to incubate at ambient temperature for 1 h before being read on the EnVision reader (Perkin Elmer).
(§4) Results were expressed as pIC50 (negative logarithm of IC50) and subsequently converted to pKi (negative logarithm of dissociation constant, Ki) using the Cheng-Prusoff equation.

[7] = target: JAK2 (Homo sapiens (Human), UniProt O60674); type: biochemical
Chain of JAK2 (O60674 whole entry): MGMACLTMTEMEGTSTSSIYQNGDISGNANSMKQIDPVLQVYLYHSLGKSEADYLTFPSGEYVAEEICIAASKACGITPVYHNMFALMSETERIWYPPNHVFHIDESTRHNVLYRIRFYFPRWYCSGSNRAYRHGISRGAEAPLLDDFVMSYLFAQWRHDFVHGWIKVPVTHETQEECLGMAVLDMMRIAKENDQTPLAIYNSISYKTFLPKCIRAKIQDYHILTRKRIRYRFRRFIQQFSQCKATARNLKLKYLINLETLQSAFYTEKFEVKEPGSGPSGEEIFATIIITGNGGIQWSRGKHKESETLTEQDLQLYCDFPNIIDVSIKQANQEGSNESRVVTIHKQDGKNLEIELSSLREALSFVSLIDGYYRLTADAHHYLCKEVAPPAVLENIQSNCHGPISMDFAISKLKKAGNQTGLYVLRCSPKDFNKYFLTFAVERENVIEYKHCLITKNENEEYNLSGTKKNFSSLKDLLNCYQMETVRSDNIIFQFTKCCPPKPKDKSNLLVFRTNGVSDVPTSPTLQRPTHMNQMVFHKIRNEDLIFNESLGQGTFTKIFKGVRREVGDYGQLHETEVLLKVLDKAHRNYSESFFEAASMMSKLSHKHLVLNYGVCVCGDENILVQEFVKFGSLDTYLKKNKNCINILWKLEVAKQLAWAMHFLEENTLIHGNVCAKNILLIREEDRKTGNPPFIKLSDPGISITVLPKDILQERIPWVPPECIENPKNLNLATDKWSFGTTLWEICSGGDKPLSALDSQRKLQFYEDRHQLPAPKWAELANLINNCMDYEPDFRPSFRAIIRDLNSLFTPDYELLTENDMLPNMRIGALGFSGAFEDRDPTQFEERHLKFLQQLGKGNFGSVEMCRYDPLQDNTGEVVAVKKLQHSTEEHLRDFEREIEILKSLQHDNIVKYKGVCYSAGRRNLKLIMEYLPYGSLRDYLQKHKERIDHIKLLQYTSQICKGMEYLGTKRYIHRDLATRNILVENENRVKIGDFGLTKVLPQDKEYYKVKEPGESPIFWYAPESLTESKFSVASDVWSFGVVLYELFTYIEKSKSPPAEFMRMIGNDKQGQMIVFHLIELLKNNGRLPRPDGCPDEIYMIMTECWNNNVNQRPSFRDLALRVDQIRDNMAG
Procedure: as §1, §2, §3, §4

[8] = target: JAK3 (Homo sapiens (Human), UniProt P52333); assay: Biochemical JAK assay (LanthaScreen), JAK3
Chain of JAK3 (P52333 whole entry): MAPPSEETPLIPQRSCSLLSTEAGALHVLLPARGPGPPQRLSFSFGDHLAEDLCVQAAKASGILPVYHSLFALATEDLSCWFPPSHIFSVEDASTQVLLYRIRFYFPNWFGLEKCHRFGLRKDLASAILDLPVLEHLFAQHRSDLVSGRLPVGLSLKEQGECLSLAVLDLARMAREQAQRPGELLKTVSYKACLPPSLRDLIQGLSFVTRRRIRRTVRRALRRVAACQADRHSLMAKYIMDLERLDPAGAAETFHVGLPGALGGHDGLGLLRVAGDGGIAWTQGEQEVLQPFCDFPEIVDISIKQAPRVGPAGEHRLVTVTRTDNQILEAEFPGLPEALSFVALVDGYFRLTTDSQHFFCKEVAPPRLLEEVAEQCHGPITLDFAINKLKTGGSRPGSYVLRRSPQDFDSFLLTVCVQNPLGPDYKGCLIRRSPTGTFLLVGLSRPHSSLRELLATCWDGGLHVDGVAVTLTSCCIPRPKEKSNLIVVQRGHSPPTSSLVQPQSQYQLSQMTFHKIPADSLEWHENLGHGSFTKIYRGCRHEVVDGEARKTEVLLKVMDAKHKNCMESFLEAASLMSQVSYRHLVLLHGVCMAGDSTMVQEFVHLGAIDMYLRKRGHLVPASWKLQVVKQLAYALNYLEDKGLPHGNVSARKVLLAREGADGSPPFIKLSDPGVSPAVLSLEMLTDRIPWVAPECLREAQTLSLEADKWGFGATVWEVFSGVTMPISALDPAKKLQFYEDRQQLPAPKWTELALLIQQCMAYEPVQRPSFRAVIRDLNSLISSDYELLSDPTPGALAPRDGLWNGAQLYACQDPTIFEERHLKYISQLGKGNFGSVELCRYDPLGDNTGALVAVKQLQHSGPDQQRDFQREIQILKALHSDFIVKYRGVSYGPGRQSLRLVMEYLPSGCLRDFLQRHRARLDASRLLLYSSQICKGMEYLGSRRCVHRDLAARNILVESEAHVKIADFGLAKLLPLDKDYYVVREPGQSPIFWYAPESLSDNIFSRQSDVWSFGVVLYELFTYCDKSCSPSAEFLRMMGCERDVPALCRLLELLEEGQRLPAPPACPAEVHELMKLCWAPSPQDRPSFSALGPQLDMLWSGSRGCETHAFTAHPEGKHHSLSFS
Procedure: as §1, §2
Serially diluted compounds were pre-incubated with each of the four JAK enzymes and the substrate in white 384-well microplates (Corning) at ambient temperature for 1 h. ATP was subsequently added to initiate the kinase reactions in 10 μL total volume, with 1% DMSO. […] The plates were allowed to incubate at ambient temperature for 1 h before being read on the EnVision reader (Perkin Elmer).
as §4

[9] = 5% to 90% relative humidity, room temperature; listed as Crystalline 3-(1R,3s,5S)-3-((7-((5-methyl-1H-pyrazol-3-yl)amino)-1,6-naphthyrid))
Procedure: A weighed sample was used and the humidity was lowest possible value (close to 0% RH) at the start of the analysis. The DMS analysis consisted of an initial drying step (0% RH) for 120 minutes, followed by two cycles of sorption and desorption with a scan rate of 5% RH/step over the humidity range of 5% RH to 90% RH. The DMS run was performed isothermally at 25° C.

## Cc1cc(Nc2cc3ncccc3c(N[C@@H]3C[C@H]4CC[C@@H](C3)N4CCC#N)n2)n[nH]1 [Example 1, 3-((1R,3s,5S)-3-((7-((5-methyl-1H-pyrazol-3-yl)amino)-1,6-naphthyridin-5-yl)amino)-8-azabicyclo[3.2.1]octan-8-yl)propanenitrile]
[1]
  exposure throughout the gastrointestinal tract vs exposure in plasma: significantly higher exposure
[2]
  activity in the oxazolone-induced colitis model: demonstrated activity
[2]; PO, 1, 3, and/or 10 mg/kg BID (doses up to 10 mg/kg BID)
  decrease in DAI score as compared with vehicle treated animals: statistically significant decrease
[3]; PO BID doses up to 100 mg/kg
  splenic NK cell counts: unaffected
[3]; PO BID
  treatment effect on B and T cell populations: No treatment effect
[4]
  oral bioavailability: very low

## COCC1CCCN1S(=O)(=O)N1[C@@H]2CCC[C@H]1C[C@H](Nc1nc(Nc3cc(C)[nH]n3)cc3ncccc13)C2 (some centres unmarked) [Example 4-28]
[5]
  THP-1 IL4 pIC50: A (A represents a pEC50 value ≥7.5 (EC50≤32 nM))
[6]
  Tyk 2 (pKi): B (B represents a pKi value between 9 and 10 (Ki between 1 nM and 0.1 nM))
[7]
  JAK 2 (pKi): B (B represents a pKi value between 9 and 10 (Ki between 1 nM and 0.1 nM))
[8]
  JAK 3 (pKi): C (C represents a pKi value between 7 and 9 (Ki between 100 nM and 1 nM))

## Cc1cc(Nc2cc3ncccc3c(N[C@@H]3C[C@H]4CC[C@@H](C3)N4CCC#N)n2)n[nH]1 [Form I, 3-((1R,3s,5S)-3-((7-((5-methyl-1H-pyrazol-3-yl)amino)-1,6-naphthyridin-5-yl)amino)-8-azabicyclo[3.2.1]octan-8-yl)propanenitrile]
[9]
  weight gain / weight change on exposure to humidity: less than 0.15%
